Columns and labels:
MCF7 human breast cancer = assay: MCF7 xenograft, A12 monotherapy; type: in vivo, nude mice
Experimental: In order to assess its activity on MCF7 tumor growth in vivo, a mouse xenograft tumor model was utilized. MCF7 cells were originally isolated from an estrogen-dependent human tumor and require exogenously added estrogen for maintenance and growth in vivo. Nude mice were implanted with biodegradable estrogen pellets (0.72 mg 17-β-estradiol/pellet, 60 day release). In addition, at the time of subcutaneous tumor cell injection, the mice were also injected in the right flank subcutaneously with 0.5 mg of estradiol in a 50 μl suspension of sesame seed oil. Tumors were allowed to establish a size of approximately 150 mm^3 before antibody treatment was initiated. Antibody was injected at 1 mg, 100 μg, and 10 μg doses every three days and continued for the duration of the experiment. At 29 days, treatment of animals with 1 mg of A12 effected an 89% reduction in tumor growth (FIG. 25). Minimal growth was apparent for the established tumors in this treatment group.

mouse IGF-IR [1] = assay: FACs binding analysis to mouse cell lines; type: cell-based; conditions: IGF-IR negative mouse embryo fibroblasts (R- cells)
mouse IGF-IR [2] = molecular target: T1, mouse IGF-IR (Mus musculus, UniProt Q60751); assay: FACs binding analysis to mouse cell lines; type: cell-based; conditions: mouse tumor cell line Lewis Lung carcinoma
T1 construct: endogenous in cells; host or cells: Lewis Lung carcinoma (mouse); R- mouse embryo fibroblasts (IGF-IR negative control)
T1 sequence (Q60751 31-737 limits assumed): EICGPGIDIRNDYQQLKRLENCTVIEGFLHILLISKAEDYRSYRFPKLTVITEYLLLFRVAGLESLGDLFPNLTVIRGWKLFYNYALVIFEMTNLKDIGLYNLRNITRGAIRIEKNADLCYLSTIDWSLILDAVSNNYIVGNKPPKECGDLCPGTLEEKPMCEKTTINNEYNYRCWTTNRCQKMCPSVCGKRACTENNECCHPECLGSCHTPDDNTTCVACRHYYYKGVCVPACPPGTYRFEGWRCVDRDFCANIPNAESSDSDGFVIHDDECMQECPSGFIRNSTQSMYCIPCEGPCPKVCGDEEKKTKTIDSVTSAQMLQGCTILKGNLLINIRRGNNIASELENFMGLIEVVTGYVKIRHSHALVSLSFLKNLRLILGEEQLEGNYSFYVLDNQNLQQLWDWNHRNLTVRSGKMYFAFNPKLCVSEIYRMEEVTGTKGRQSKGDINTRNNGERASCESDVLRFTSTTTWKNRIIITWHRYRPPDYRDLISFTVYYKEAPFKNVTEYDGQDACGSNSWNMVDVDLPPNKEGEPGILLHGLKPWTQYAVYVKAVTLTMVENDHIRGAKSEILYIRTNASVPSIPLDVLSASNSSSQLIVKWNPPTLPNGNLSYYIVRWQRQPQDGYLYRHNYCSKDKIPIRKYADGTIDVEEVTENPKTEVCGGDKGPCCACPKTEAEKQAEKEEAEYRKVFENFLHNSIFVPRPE
T1 sequence (Q60751 742-1373 limits assumed): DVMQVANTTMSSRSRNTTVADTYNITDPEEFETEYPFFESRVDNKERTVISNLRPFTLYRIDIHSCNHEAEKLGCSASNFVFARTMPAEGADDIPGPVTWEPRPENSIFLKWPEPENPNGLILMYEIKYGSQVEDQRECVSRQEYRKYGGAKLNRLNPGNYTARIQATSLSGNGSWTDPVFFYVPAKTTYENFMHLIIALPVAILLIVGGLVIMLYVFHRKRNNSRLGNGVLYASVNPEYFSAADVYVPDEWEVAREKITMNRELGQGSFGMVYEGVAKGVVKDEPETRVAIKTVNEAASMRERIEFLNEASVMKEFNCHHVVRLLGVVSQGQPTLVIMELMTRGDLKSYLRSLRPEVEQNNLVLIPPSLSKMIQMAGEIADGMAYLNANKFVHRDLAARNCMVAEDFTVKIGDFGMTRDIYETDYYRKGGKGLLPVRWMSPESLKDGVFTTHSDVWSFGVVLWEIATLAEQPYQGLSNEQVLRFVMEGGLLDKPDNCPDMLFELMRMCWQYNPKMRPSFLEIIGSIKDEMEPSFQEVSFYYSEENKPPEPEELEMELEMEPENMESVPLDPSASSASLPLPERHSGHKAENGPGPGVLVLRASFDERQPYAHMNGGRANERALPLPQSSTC

[3] = system: human colorectal cancer line HT-29; assay: HT-29 xenograft, A12 monotherapy; type: in vivo, mouse
Experimental: We were interested to determine if the anti-IGF-IR antibodies were capable of inhibiting human tumor growth in vivo in a nude mouse xenograft model. Tumors were induced in 3-4 week old athymic nude (nu/nu) mice by subcutaneous injection of 2-3 million viable HT-29 human colorectal cancer cells in cell culture medium. The tumors were allowed to establish and antibody treatment started when the tumor volume reached 200 mm^3. Ten animals were injected with tumor cells per treatment group. Antibody was injected intraperitoneally (IP) every three days at 1 mg or 0.5 mg in 0.5 ml TBS. The drug irenotecan (CPT-11) (LKT Laboratories) was injected IP (100 mg/kg) once a week for four weeks from the initiation of antibody treatment. Control animals received a class matched irrelevant human IgG antibody. Tumor measurements were performed at regular intervals using Vernier calipers, measuring height, width, and length and calculated to determine the total tumor volume. The study was terminated when control tumors reached 3000 mm^3.
Tumors were induced as previously described, and antibody treatment initiated once tumors were established (200 mm^3 size). Antibody treatment was then given at a concentration of 1 mg, 100 μg, or 10 μg every three days throughout the duration of the experiment. Ten animals were used per treatment group and control animals received a class match IgG control antibody.

IGF-IR on MCF7 cells = molecular target: T2, IGF-IR on MCF7 cells (Homo sapiens, UniProt P08069); assay: IGF-IR surface receptor density by FACS; type: cell-based; conditions: MCF7 cells incubated at 4° C.
T2 construct: endogenous in cells
Experimental: IGF-IR surface receptor density was determined by FACS. […] Cells were washed in ice-cold PBS/5% BSA twice, and 1×10^6 cells were aliquoted to staining tubes and placed on ice. An IGF-IR alpha-polypeptide specific, non-blocking mouse monoclonal antibody (Ab-1, NeoMarkers, Fremont, Calif.), was then incubated with cells at 4° C. for 2 h. After PBS/BSA washes, cells were incubated with anti-mouse IgG phycoerythrin-conjugated secondary antibody (PharMingen, BD Biosciences) for 1 h on ice. After PBS/BSA wash, cells were analyzed by fluorescence-activated cell-sorting assay using a FACSvantage SE flow cytometer (BD Bioscience).

[4] = molecular target: T3, IGF-IR in HT-29 cells and BxPC-3 cells (Homo sapiens, UniProt P08069); assay: Total cellular IGF-IR after treatment; type: cell-based; conditions: HT-29 and BxPC-3 cells; A12 after 3-6 hours
T3 construct: endogenous in cells; HT-29; BxPC-3; HEL

insulin receptor (IR) = molecular target: T4, insulin receptor (IR) (Homo sapiens, UniProt P06213); assay: Blocking of radiolabeled insulin binding to ZR-75I cells; conditions: ZR-75I breast cancer cells; antibody up to 200 nM
T4 construct: endogenous in cells; host or cells: ZR-75I human breast cancer cells

IGF-IR = IGF-IR (Homo sapiens, UniProt P08069); assay: Human IGF-IR binding ELISA; set-up: recombinant extracellular portion of human IGF-IR was used to screen; conditions: full IgG; 50% binding relative to saturation; read-out: Binding (ED50)
Experimental: Binding results were determined by human IGF-IR ELISA and represent the concentration of titered antibody necessary to achieve 50% binding relative to saturation. Blocking results represent the level of antibody necessary to inhibit 50% binding of ^125I-IGF-I ligand to immobilized human IGF-IR. Affinity was determined by BIAcore analysis according to manufacturer's specifications (Pharmacia BIACORE 3000). Soluble IGF-IR was immobilized on the sensor chips and antibody binding kinetics determined.

[5] = system: BxPC-3 human pancreatic carcinoma cells; assay: BxPC-3 xenograft, A12 with CPT-11 or gemcitabine; type: in vivo, athymic nu/nu mice
Experimental: Athymic nu/nu mice were injected subcutaneously with 2×10^6 BxPC-3 human pancreatic carcinoma cells mixed 1:1 with Matrigel. […] All treatments were administered by intraperitoneal injection. Tumor measurements were recorded twice weekly using the formula Volume=(π/6)l×w^2.
At day 18 three animals per group were sacrificed and the tumors resected for midpoint histological evaluation. Treatment and tumor measurements continued on the remaining animals until day 44 with the exception of the TBS group. […] At termination of the study final tumor measurements were recorded, animals sacrificed, and four per group had tumors resected for endpoint histological evaluation.

A12: fully human IgG1 anti-IGF-IR antibody, lambda light chain; VH SEQ ID NO:2, VL SEQ ID NO:10; affinity matured from 2F8
reduction in tumor growth (MCF7 human breast cancer; 1 mg every three days, at 29 days): 89% | tumor regression (MCF7 human breast cancer; antibody alone 1 mg/dose, continued to termination (50 days)): tumor regression was observed | FACs binding (mouse IGF-IR [1]): failed to bind | FACs shift (mouse IGF-IR [2]): partially shift | anti-tumor activity ([3]; 100 μg every three days): Anti-tumor activity was also observed | reduction in tumor growth compared to control ([3]; every three days, P<0.05, dose of this value not stated (1 mg, 100 μg, 10 μg tested)): 74% | shift of surface IGF-IR fluorescence intensity (IGF-IR on MCF7 cells): shift was not seen | effect on total cellular IGF-IR [4]: severe depletion of IGF-IR levels | blocking of insulin binding (insulin receptor (IR)): neither 2F8 nor the high affinity A12 antibody blocked insulin binding | EC50 (IGF-IR): 0.3 nM | animals with partial tumor regressions ([5]; after five weeks of treatment): 2 of eight | Regressions (individual tumor volumes < day 1 of treatment) ([5]; day 19, animals regressing/animals in group): 2/12 | T/C % ([5]; day 19, ip, A12 1 mg 3 times per week, irinotecan 1 mg or gemcitabine 2.5 mg every 7 days): 57% | Regressions (individual tumor volumes < day 1 of treatment) ([5]; day 23): 2/9 | T/C % ([5]; day 23, same regimens): 49% | Regressions (individual tumor volumes < day 1 of treatment) ([5]; day 26): 2/9 | T/C % ([5]; day 26, same regimens): 40% | Regressions (individual tumor volumes < day 1 of treatment) ([5]; day 30): 2/8 | T/C % ([5]; day 30, same regimens): 40% | Regressions (individual tumor volumes < day 1 of treatment) ([5]; day 32): 2/8 | T/C % ([5]; day 32, same regimens): 39% | Regressions (individual tumor volumes < day 1 of treatment) ([5]; day 37): 2/8 | Regressions (individual tumor volumes < day 1 of treatment) ([5]; day 41): 2/8 | Regressions (individual tumor volumes < day 1 of treatment) ([5]; day 44): 2/8
